Laboratory results published in patent publication US20100311708A1, “USE OF NOR-BILE ACIDS IN THE TREATMENT OF ARTERIOSCLEROSIS” (priority 2007, published 2010).

Legend:
Assay type in all cases: in vivo
ApoE−/− mice [1] = test: Treatment of ApoE−/− mice with nor-UDCA in comparison to UDCA (Experiment 3); conditions: for % plaques in the aortic arch (plaque area versus total area, en-face red oil): FIG. 12; for plaques in red-oil stained aortic valve cross-sections (histological analysis): FIG. 13 top
Source text: (§1) ApoE-deficient mice as described in Experiment 1 were used.
ApoE−/− mice (n=15) were fed with normal diet for 8 weeks post natum, followed by western chow diet (“high fat diet”) for another 8 weeks. The mice were then segregated into three groups with each group comprising five mice. In the control group, the mice were further fed with the western chow diet for additional four weeks. In the second group, the ApoE−/− mice were fed with a western chow diet comprising 0.5% w/w nor-UDCA for additional four weeks. Finally, in the third group, the ApoE−/− mice were fed with a western chow diet comprising 0.5% w/w UDCA for additional four weeks. Considering a food intake of 4 g/day of chow per mouse, this corresponds to 20 mg/day of nor-UDCA or UDCA, respectively, per mouse.
The experimental setup is depicted in FIG. 6.

ApoE−/− mice [2] = test: Prevention of atherosclerosis in ApoE−/− mice by nor-UDCA in comparison to UDCA (Experiment 4); conditions: prevention study, 0.5% w/w in western chow diet for 12 weeks
Source text: as §1
ApoE−/− mice (n=15) were fed with normal diet for 8 weeks post natum and then segregated into three groups with each group comprising five mice. In the control group, the mice were fed with the western chow diet for additional 12 weeks. In the second group, the ApoE−/− mice were fed with a western chow diet comprising 0.5% w/w nor-UDCA for additional 12 weeks. Finally, in the third group, the ApoE−/− mice were fed with a western chow diet comprising 0.5% w/w UDCA for additional 12 weeks. Considering a food intake of 4 g/day of chow per mouse, this corresponds to 20 mg/day of nor-UDCA or UDCA, respectively, per mouse.
Thus, in this experimental prevention setup, the mice are fed with diet known to force atherosclerotic plaque formation together with either UDCA or nor-UDCA (mice of the second and third group) having preventive effects on the plaque formation. When compared to a control fed with western chow diet only, the preventive effects can be studied.
The experimental setup is depicted in FIG. 14(a).

LDLR−/− mice = test: Treatment of LDLR−/− mice with nor-UDCA (Experiment 2); conditions: 0.5% w/w in western chow diet for 4 weeks after 8 weeks western chow diet; vs control; FIG. 5
Source text: In a second experiment (FIGS. 4 and 5), the effect of nor-UDCA in LDLR−/− mice that were raised on a western chow diet was investigated.
As for the ApoE-deficient mice, the LDLR-deficient mice are considered to be a bona-fide animal model of atherosclerosis development. If these mice are raised on a western chow diet they evolve typical symptoms of atherosclerosis involving atherosclerotic plaque formation in the aorta (FIG. 5).
LDLR−/− mice were produced as described in Ishebashi et. al. (J. Clin. Jnnvest., 1993, 92, 883-893). The 129-derived AB1 ES cell line was used. The strain was backcrossed to C57BL/6J mice for 10 generations. Ldlr^tm1Her/Ldlr^tm1Her involves: 129S7/SvEvBrd*C57BL/6. LDLR-deficient mice can also be obtained from the Jackson Laboratory (Maine, US) with the strain name B6.129S7-Ldlr^tm1Her/J (http://jaxmice.jax.org).
As in Experiment 1, ten mice being deficient in LDLR were raised on normal diet during the first 8 weeks post natum followed by the western chow diet for another eight weeks. Afterwards, the ten mice were separated into two groups for which the control group A received further feeding on a western chow diet for 4 weeks. In the test group B, the western chow diet of the following 4 weeks was supplemented with 0.5% w/w nor-UDCA. Considering a food intake of 4 g/day of chow per mouse, this corresponds to 20 mg/day of nor-UDCA per mouse. […]

ApoE−/− mice [3] = test: Treatment of ApoE−/− mice with nor-UDCA (Experiment 1); conditions: 0.5% w/w in western chow diet for 4 weeks after 8 weeks western chow diet, vs control
Description: In order to study the effects of nor-UDCA on atherosclerosis, ApoE-deficient mice were treated. To this end ApoE−/− mice as described in Piedrahita et. al. (PNAS, 1992, 89, 4471-4475) which carry the Apoe^tm1Unc mutation were back-crossed 10 times into the C57BL76J. ApoE-deficient mice can also be obtained from the Jackson Laboratory (Maine, US) with the strain name B6.129P2.-Apoe^tm1Unc/J(http://jaxmice.jax.org).
ApoE−/− mice (n=10) were fed with normal diet for 8 weeks post natum, followed by western chow diet for another 8 weeks. The western chow diet consists of 21% by weight fat, 1.5% by weight cholesterol and no cholic acid (“high fat diet”).
This type of western chow diet is known to force atherosclerotic plaque formation on the indicated time line in ApoE−/− mice. After eight weeks of being fed with western chow diet, the mice were segregated into two groups with each group comprising five mice. In the control group A, the mice were further fed with the western chow diet for additional four weeks. In the other group B, the ApoE−/− mice were fed with a western chow diet comprising 0.5% w/w nor-UDCA for additional four weeks. Considering a food intake of 4 g/day of chow per mouse, this corresponds to 20 mg/day of nor-UDCA per mouse.
The experimental setup is depicted in FIG. 1.

[4] = treatment study, 0.5% w/w in western chow diet for 4 weeks

Row | Compound | % plaques in the aortic arch (plaque area versus total area, en-face red oil) (ApoE−/− mice [1]; [4]) | plaques in red-oil stained aortic valve cross-sections (histological analysis) (ApoE−/− mice [1]; [4]) | weight of the brown adipose tissue (ApoE−/− mice [2]; FIG. 18) | extent and size of atherosclerotic plaque, aorta en-face stained with red oil (LDLR−/− mice) | number of hepatic neutrophil granulocytes (CD11b-positive cells in liver) (ApoE−/− mice [1]; 0.5% w/w in western chow diet for 4 weeks after 8 weeks western chow diet, FIG. 7) | expression level of p-JNK in liver tissue (Western blot) (ApoE−/− mice [1]; 0.5% w/w in western chow diet for 4 weeks after 8 weeks western chow diet, FIG. 8) | aortic valve plaque area versus total surface area (plaques in % of the surface area) (ApoE−/− mice [1]; treatment study, 0.5% w/w in western chow diet for 4 weeks, FIG. 13 quantification) | hepatic triglyceride levels (ApoE−/− mice [1]; treatment study, 0.5% w/w in western chow diet for 4 weeks, compared to control or UDCA-treated mice, FIG. 9) | serum transaminase (alanin-amino-transferase) levels (ApoE−/− mice [1]; treatment study, 0.5% w/w in western chow diet for 4 weeks, compared to control, FIG. 10) | total serum cholesterol levels (ApoE−/− mice [1]; treatment study, 0.5% w/w in western chow diet for 4 weeks, compared to control, FIG. 11) | arteriosclerotic plaques in red-oil stained aorta cross-sections (histological analysis) (ApoE−/− mice [3]; 20 weeks post natum, FIG. 2) | sclerotic area versus the aorta area (morphometric analysis) (ApoE−/− mice [3]; FIG. 3) | hepatic triglyceride amounts, liver preparations stained with oil-red (histology) (ApoE−/− mice [2]; FIG. 15 a-c) | total serum cholesterol levels (ApoE−/− mice [2]; FIG. 17) | extent and size of atherosclerotic plaques, aorta en-face stained with red oil (ApoE−/− mice [2]; FIG. 19) | serum transaminase (alanin-amino-transferase) levels (ApoE−/− mice [2]; compared to control and UDCA, FIG. 16) | amount (weight) of white adipose tissue (ApoE−/− mice [2]; compared to control or UDCA-treated mice, FIG. 18) | hepatic triglyceride levels (quantification in liver homogenate) (ApoE−/− mice [2]; compared to control or UDCA-treated mice, FIG. 15 d) | sclerotic area versus the total aorta area (morphometric analysis) (ApoE−/− mice [2]; vs control, FIG. 20)
1 | C[C@H](CCC(=O)O)[C@H]1CC[C@H]2[C@@H]3[C@@H](O)C[C@@H]4C[C@H](O)CC[C@]4(C)[C@H]3CC[C@]12C [UDCA, reference compound] | decreasing the percent of plaques | the amount of plaques is reduced | neither UDCA nor nor-UDCA had an influence | – | – | – | – | – | – | – | – | – | – | – | – | – | – | – | –
2 | C[C@H](CC(=O)O)[C@H]1CC[C@H]2[C@@H]3[C@@H](O)C[C@@H]4C[C@H](O)CC[C@]4(C)[C@H]3CC[C@]12C [nor-UDCA, 24-nor[3α,7β-dihydroxy-5β-cholan-23-oic] acid] | decreasing the percent of plaques | the amount of plaques is reduced | neither UDCA nor nor-UDCA had an influence | significantly reduced | clearly reduced | capable of downregulating the expression of p-JNK | significant reduction of said % plaques | capable of significantly reducing the triglyceride-amount in the liver | trend of reducing the serum transaminase levels | seems to be capable of lowering the total cholesterol | significantly reduced extent of these plaques | significantly smaller | hepatic triglyceride amounts are decreased | does not seem to reduce serum cholesterol levels | significantly reduced | significantly reduces the serum transaminase levels | strong reduction of the amount of white adipose tissue | capable of significantly reducing the triglyceride-amount in the liver | significantly smaller
